Reference: US7465753B2, “Glycoside-containing liposome” (Otsuka Pharmaceutical Co., Ltd., priority 2003, dated 2008)
Like-named read-outs stand apart in the source and are kept apart here.

Key:
colon26 wild [1] = details: glycoside alone; conventionally shown; cited from earlier work
colon26 wild [2] = experiment: Cell proliferation inhibitory effect, MTT assay, colon26 wild; format: cell-based; details: glycoside employed alone, 37° C. for three days
Method: A cultured cancer cell line (colon26 wild) was inoculated into a 96-well plate (1×10^4 cells/100 μL/well), and subsequently a cholestanol glycoside (GlcNAcβ1,4GalChol, Fucα1,3GalChol, GalβChol, or Chol) or each type of the cholestanol glycoside liposomes formed in Example 1 was added to the 96-well plate, followed by incubation at 37° C. for three days. Thereafter, the MTT assay was performed, and the number of live cells was determined. The cell proliferation inhibition rate was obtained by use of the following formula. Cell proliferation inhibition rate(CPI rate)(%)=(1−OD of treated cells/OD of non-treated cells)×100

SMILES | cell proliferation inhibitory effect (colon26 wild [1]) | cell proliferation inhibitory effect (colon26 wild [2])
CC(=O)N[C@H]1[C@H](O[C@@H]2[C@H](O)[C@@H](O)[C@H](O[C@H]3CC[C@@]4(C)[C@@H](CC[C@@H]5[C@@H]4CC[C@]4(C)[C@@H]([C@H](C)CCCC(C)C)CC[C@@H]54)C3)O[C@@H]2CO)O[C@H](CO)[C@@H](O)[C@@H]1O [GlcNAcβ1,4GalChol, 3-β-cholestanyl 4-O-(2-acetamido-2-deoxy-β-D-glucopyranosyl)-β-D-galactopyranoside] | has conventionally been shown to have cell proliferation inhibitory effect | 
CC(C)CCC[C@@H](C)[C@H]1CC[C@H]2[C@@H]3CC[C@H]4C[C@@H](O[C@@H]5O[C@H](CO)[C@H](O)[C@H](O[C@@H]6O[C@@H](C)[C@@H](O)[C@@H](O)[C@@H]6O)[C@H]5O)CC[C@]4(C)[C@H]3CC[C@]12C [Fucα1,3GalChol, 3-β-cholestanyl 3-O-(α-L-fucopyranosyl)-β-D-galactopyranoside] |  | scarcely exhibits cell proliferation inhibitory effect
